Reference: patent US20100317607A1, “USE OF COMPOUNDS FOR PREPARING ANTI-TUBERCULOSIS AGENTS” (INFECTIOUS DISEASE RESEARCH INSTITUTE, priority 2007, published 2010)
In brackets after ≈: the same amount, converted by molar mass. Where a name gives a salt, the structure may show the parent alone.

What follows are molecules tested on H37Rv strain of M. tuberculosis (assay: Alamar Blue Susceptibility Test (MABA)). Settings: H37Rv strain of M. tuberculosis; Alamar Blue.
Assay type: cell-based
With `Nc1nc(N)c2ccccc2n1` [Comparative compound 2, Quinazoline-2,4-diamine, reference compound] the “MABA (TB growth inhibition, colourimetric assay)” value was “−”.

Same assay, conditions: Mycobacterium tuberculosis, H37RV, read-out: MABA (TB growth inhibition, colourimetric assay)
Work on `Clc1ccc(CNc2nc(N3CCCCC3)nc3ccccc23)cn1` [Compound 194, N-((6-Chloropyridin-3-yl)methyl)-2-(piperidin-1-yl)quinazolin-4-amine hydrochloride] yielded an MIC of 10 to 50 µM.

Same assay, conditions: Mycobacterium tuberculosis; H37Rv strain of M. tuberculosis; Alamar Blue; read-out: MABA (TB growth inhibition, colourimetric assay)
Molecule `c1ccc(CNc2nc(N3CCCCCC3)nc3ccccc23)cc1` [Compound 197, 2-(Azepan-1-yl)-N-benzylquinazolin-4-amine] has an MIC of 10 to 50 µM (≈ 3.32 to 16.6 µg/mL).
For `c1ccc2c(c1)CN(c1nc(N3CCCCC3)nc3ccccc13)C2` [Compound 85, 4-(Isoindolin-2-yl)-2-(piperidin-1-yl)quinazoline hydrochloride], the MIC was 10 to 50 µM.
For `Fc1ccc(CNc2nc(N3CCCCC3)c3ccccc3n2)cc1` [Compound 111, N-(4-Fluorobenzyl)-4-(piperidin-1-yl)quinazolin-2-amine hydrochloride], the MIC was 10 to 50 µM.
`COc1cc2nc(N3CCC(F)(F)CC3)nc(NCc3ccc(F)cc3)c2cc1OC` [Compound 151, 2-(4,4-Difluoropiperidin-1-yl)-N-(4-fluorobenzyl)-6,7-dimethoxyquinazolin-4-amine hydrochloride] was tested, and the MIC was 10 to 50 µM.
Molecule `FC(F)(F)Oc1ccc(CNc2nc(N3CCCCC3)nc3ccccc23)cc1` [Compound 162, 2-(Piperidin-1-yl)-N-(4-(trifluoromethoxy)benzyl)quinazolin-4-amine] has an MIC of less than 10 µM.
`COC(=O)[C@@H](Nc1nc(N2CCCCC2)nc2ccccc12)c1ccccc1` [Compound 175, (S)-Methyl 2-phenyl-2-(2-(piperidin-1-yl)quinazolin-4-ylamino)acetate] gave an MIC of 10 to 50 µM (≈ 3.76 to 18.8 µg/mL).
In the case of `Fc1ccc(CNc2nc(Nc3ccc(F)cc3)nc3ccccc23)cc1` [Compound 118, N^4-(4-Fluorobenzyl)-N^2-(4-fluorophenyl)quinazoline-2,4-diamine hydrochloride], the MIC was 10 to 50 µM.
For `Cc1ccc(CCNc2nc(N3CCCCC3)nc3ccccc23)cc1` [Compound 87, N-(4-Methylphenethyl)-2-(piperidin-1-yl)quinazolin-4-amine hydrochloride], the MIC was 10 to 50 µM.
With `Clc1ccc(C2(Nc3nc(N4CCCCC4)nc4ccccc34)CC2)cc1` [Compound 141, N-(1-(4-Chlorophenyl)cyclopropyl)-2-(piperidin-1-yl)quinazolin-4-amine hydrochloride] the MIC was 10 to 50 µM.
`c1cncc(CNc2nc(N3CCCCC3)nc3ccccc23)c1` [Compound 47, 2-(Piperidin-1-yl)-N-(pyridin-3-ylmethyl)quinazolin-4-amine] gave an MIC of 50 to 128 µM (≈ 16 to 40.9 µg/mL).
Molecule `Fc1ccc(CNc2nc(NCc3ccc(F)cc3)c3ccccc3n2)cc1` [Compound 119, N^2,N^4-bis(4-Fluorobenzyl)quinazoline-2,4-diamine hydrochloride] has an MIC of 10 to 50 µM.
Molecule `Cc1ccc(CNc2nc(N3CCCCC3)nc3ccccc23)o1` [Compound 167, N-((5-Methylfuran-2-yl)methyl)-2-(piperidin-1-yl)quinazolin-4-amine] has an MIC of less than 10 µM.
`CC(C)(Cc1ccc(F)cc1)Nc1nc(N2CCCCC2)nc2ccccc12` [Compound 108, N-(1-(4-Fluorophenyl)-2-methylpropan-2-yl)-2-(piperidin-1-yl)quinazolin-4-amine] showed an MIC of 10 to 50 µM (≈ 3.78 to 18.9 µg/mL).
`Fc1ccc(Nc2nc(N3CCCC3)nc3nccnc23)cc1` [Compound 185, N-(4-Fluorophenyl)-2-(pyrrolidin-1-yl)pteridin-4-amine] showed an MIC of 50 to 128 µM (≈ 15.5 to 39.7 µg/mL).
Work on `O=C(C1CCCCC1)N1CCN(c2nc(NCc3ccc(F)cc3)c3ccccc3n2)CC1` [Compound 203, Cyclohexyl(4-(4-(4-fluorobenzylamino)quinazolin-2-yl)piperazin-1-yl)methanone] yielded an MIC of 10 to 50 µM (≈ 4.48 to 22.4 µg/mL).
`c1ccc2c(c1)CCN(c1nc(N3CCCCC3)c3ccccc3n1)C2` [Compound 113, 2-(3,4-Dihydroisoquinolin-2(1H)-yl)-4-(piperidin-1-yl)quinazoline hydrochloride] showed an MIC of 10 to 50 µM.
`Clc1ccc(CNc2nc(N3CCCC3)nc3ccccc23)cc1` [Compound 75, N-(4-Chlorobenzyl)-2-(pyrrolidin-1-yl)quinazolin-4-amine] gave an MIC of 10 to 50 µM (≈ 3.39 to 16.9 µg/mL).
`OC[C@H](Nc1nc(N2CCCCC2)nc2ccccc12)c1ccccc1` [Compound 145, (R)-2-Phenyl-2-(2-(piperidin-1-yl)quinazolin-4-ylamino)ethanol hydrochloride] gave an MIC of 50 to 128 µM.
`c1ccc2c(c1)CC(Nc1nc(N3CCCCC3)nc3ccccc13)C2` [Compound 86, N-(2,3-Dihydro-1H-inden-2-yl)-2-(piperidin-1-yl)quinazolin-4-amine hydrochloride] was tested, and the MIC was 10 to 50 µM.
Molecule `c1ccc(C2(Nc3nc(N4CCCC4)nc4ccccc34)CCCCC2)cc1` [Compound 125, N-(1-Phenylcyclohexyl)-2-(pyrrolidin-1-yl)quinazolin-4-amine] has an MIC of 50 to 128 µM (≈ 18.6 to 47.7 µg/mL).
Work on `Fc1ccc(CNc2nc(N3CCC(F)(F)CC3)c3ccccc3n2)cc1` [Compound 149, 4-(4,4-Difluoropiperidin-1-yl)-N-(4-fluorobenzyl)quinazolin-2-amine hydrochloride] yielded an MIC of 10 to 50 µM.
Work on `Cc1ccc(CNc2nc(NCc3ccccc3)c3ccccc3n2)cc1` [Compound 28, N^4-Benzyl-N^2-(4-methylbenzyl)quinazoline-2,4-diamine] yielded an MIC of 10 to 50 µM (≈ 3.54 to 17.7 µg/mL).
Work on `Cc1ccc(CNc2nc(NCc3ccc(F)cc3)c3ccccc3n2)o1` [Compound 170, N^4-(4-Fluorobenzyl)-N^2-((5-methylfuran-2-yl)methyl)quinazoline-2,4-diamine] yielded an MIC of 10 to 50 µM (≈ 3.62 to 18.1 µg/mL).
`OC[C@@H]1CCCN1c1nc(NCc2ccccc2)c2ccccc2n1` [Compound 177, (S)-(1-(4-(Benzylamino)quinazolin-2-yl)pyrrolidin-2-yl)methanol] showed an MIC of 50 to 128 µM (≈ 16.7 to 42.8 µg/mL).
`COc1ccc(CNc2nc(NCc3ccccc3)c3ccccc3n2)cc1` [Compound 129, N^4-Benzyl-N^2-(4-methoxybenzyl)quinazoline-2,4-diamine hydrochloride] was tested, and the MIC was 10 to 50 µM.
`Fc1ccc(CNc2nc(N3CCc4ccc(Br)cc4C3)nc3ccccc23)cc1` [Compound 193, 2-(7-Bromo-3,4-dihydroisoquinolin-2(1H)-yl)-N-(4-fluorobenzyl)quinazolin-4-amine] was tested, and the MIC was 10 to 50 µM (≈ 4.63 to 23.2 µg/mL).
In the case of `Cc1ccc(CNc2nc(NCc3ccc(F)cc3)nc3ccccc23)o1` [Compound 158, N^2-(4-Fluorobenzyl)-N^4-((5-methylfuran-2-yl)methyl)quinazoline-2,4-diamine hydrochloride], the MIC was 10 to 50 µM.
`Fc1ccc(CNc2nc(NCc3ccc(F)cc3)c3ccc(F)cc3n2)cc1` [Compound 157, 7-Fluoro-N^2, N^4-bis(4-fluorobenzyl)quinazoline-2,4-diamine] was tested, and the MIC was less than 10 µM.
For `CCS(=O)(=O)N1CCN(c2nc(NCc3ccccc3)c3ccccc3n2)CC1` [Compound 26, N-Benzyl-2-(4-(ethylsulfonyl)piperazin-1-yl)quinazolin-4-amine], the MIC was 50 to 128 µM (≈ 20.6 to 52.7 µg/mL).
`Fc1ccc(CNc2nc(N3CCCC3)nc3ncccc23)cc1` [Compound 173, N-(4-Fluorobenzyl)-2-(pyrrolidin-1-yl)pyrido[2,3-d]pyrimidin-4-amine] gave an MIC of 10 to 50 µM (≈ 3.23 to 16.2 µg/mL).
`O=C(c1ccccc1)N1CCN(c2nc(NCc3ccccc3)c3ccccc3n2)CC1` [Compound 58, 1-(4-(4-(Benzylamino)quinazolin-2-yl)piperazin-1-yl)(phenyl)methanone] showed an MIC of 10 to 50 µM (≈ 4.24 to 21.2 µg/mL).
Work on `c1ccc2c(CNc3nc(N4CCCCC4)nc4ccccc34)ccnc2c1` [Compound 195, 2-(Piperidin-1-yl)-N-(quinolin-4-ylmethyl)quinazolin-4-amine] yielded an MIC of 10 to 50 µM (≈ 3.69 to 18.5 µg/mL).
`Fc1ccc(CNc2nc(NCc3ccc(F)cc3)c3sccc3n2)cc1` [Compound 166, N^2,N^4-bis(4-Fluorobenzyl)thieno[3,2-d]pyrimidine-2,4-diamine] gave an MIC of 10 to 50 µM (≈ 3.82 to 19.1 µg/mL).
In the case of `COc1ccc([C@@H](C)Nc2nc(N3CCCCC3)nc3ccccc23)cc1` [Compound 97, (R)—N-(1-(4-Methoxyphenyl)ethyl)-2-(piperidin-1-yl)quinazolin-4-amine], the MIC was 10 to 50 µM (≈ 3.62 to 18.1 µg/mL).
`CC(C)(Nc1nc(N2CCCC2)nc2ccccc12)c1ccccc1` [Compound 91, N-(2-Phenylpropan-2-yl)-2-(pyrrolidin-1-yl)quinazolin-4-amine] showed an MIC of 10 to 50 µM (≈ 3.32 to 16.6 µg/mL).
For `COC(=O)[C@@H]1CCCN1c1nc(NCc2ccc(F)cc2)c2ccccc2n1` [Compound 200, (S)-Methyl 1-(4-(4-fluorobenzylamino)quinazolin-2-yl)pyrrolidine-2-carboxylate], the MIC was 50 to 128 µM (≈ 19 to 48.7 µg/mL).
In the case of `CN(Cc1ccccc1)c1nc(NCc2ccccc2)c2ccccc2n1` [Compound 29, N^2,N^4-Dibenzyl-N^2-methylquinazoline-2,4-diamine], the MIC was 10 to 50 µM (≈ 3.54 to 17.7 µg/mL).
For `COc1cc2c(cc1OC)CN(c1nc(N3CCCC3)nc3ccccc13)CC2` [Compound 188, 4-(6,7-Dimethoxy-3,4-dihydroisoquinolin-2(1H)-yl)-2-(pyrrolidin-1-yl)quinazoline], the MIC was 10 to 50 µM (≈ 3.9 to 19.5 µg/mL).
`CN1CCN(c2nc(NCCNc3ccc([N+](=O)[O-])cc3)c3ccccc3n2)CC1` [Compound 11, N^1-(2-(4-Methylpiperazin-1-yl)quinazolin-4-yl)-N^2-(4-nitrophenyl)ethane-1,2-diamine] was tested, and the MIC was 50 to 128 µM (≈ 20.4 to 52.2 µg/mL).
In the case of `c1ccc2c(NCc3ccoc3)nc(N3CCCCC3)nc2c1` [Compound 190, N-(Furan-3-ylmethyl)-2-(piperidin-1-yl)quinazolin-4-amine], the MIC was 10 to 50 µM (≈ 3.08 to 15.4 µg/mL).
`c1ccc(CNc2nc(N3CCSCC3)nc3ccccc23)cc1` [Compound 140, N-Benzyl-2-thiomorpholinoquinazolin-4-amine hydrochloride] was tested, and the MIC was less than 10 µM.
With `Fc1ccc(CNc2nc(N3CCCCC3)nc3cccc(Cl)c23)cc1` [Compound 183, 5-Chloro-N-(4-fluorobenzyl)-2-(piperidin-1-yl)quinazolin-4-amine] the MIC was 10 to 50 µM (≈ 3.71 to 18.5 µg/mL).
`COC(=O)[C@@H]1CCCN1c1nc(NCc2ccccc2)c2ccccc2n1` [Compound 180, (S)-Methyl 1-(4-(benzylamino)quinazolin-2-yl)pyrrolidine-2-carboxylate] was tested, and the MIC was 50 to 128 µM (≈ 18.1 to 46.4 µg/mL).
Work on `CC(C)(C)OC(=O)N1CCc2c(nc(N3CCCCC3)nc2NCc2ccc(F)cc2)C1` [Compound 184, tert-Butyl 4-(4-fluorobenzylamino)-2-(piperidin-1-yl)-5,6-dihydropyrido[3,4-d]pyrimidine-7(8H)-carboxylate] yielded an MIC of 50 to 128 µM (≈ 22.1 to 56.5 µg/mL).
